Reference: US4335249A, “Herbicidal diphenyl ethers, sulfides, sulfoxides and sulfones” (Rohm and Haas Company, priority 1976, dated 1982)

Key:
Format in all cases: in vivo
[1] = system: tomato (Lycopersicon esculentum); assay: Preemergence herbicidal activity, tomato; conditions: Preemergence
How it was run: (§1)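 Plants were scored as mean % killed about two weeks after treatment. Postemergence species were sprayed two weeks after germination and preemergence species immediately after sowing. The spray was an acetone/water solution at the stated lb/A rate in a 50 gal/acre carrier.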

[2] = system: velvetleaf (Abutilon theophrasti); assay: Preemergence herbicidal activity, velvetleaf; conditions: Preemergence
How it was run: as §1

[3] = system: barnyardgrass (Echinochloa crusgalli); assay: Preemergence herbicidal activity, barnyardgrass; conditions: Preemergence
How it was run: (§2)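 Compounds dissolved in acetone, diluted with water, and sprayed onto soil flats at 50 gallons per acre carrier volume at stated lb/A rates. Preemergence: applied immediately after planting; postemergence: applied two weeks after germination.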

[4] = system: downybrome (Bromus tectorum); assay: Preemergence herbicidal activity, downybrome; conditions: Preemergence
How it was run: as §1

foxtail (Setaria spp.) [5] = assay: Preemergence herbicidal activity, foxtail; conditions: Preemergence
How it was run: as §1

wild oats (Avena fatua) [6] = assay: Preemergence herbicidal activity, wild oats; conditions: Preemergence
How it was run: as §1

[7] = system: tomato (Lycopersicon esculentum); assay: Postemergence herbicidal activity, tomato; conditions: Postemergence
How it was run: as §1

[8] = system: barnyardgrass (Echinochloa crusgalli); assay: Postemergence herbicidal activity, barnyardgrass; conditions: Postemergence
How it was run: as §2

[9] = system: downybrome (Bromus tectorum); assay: Postemergence herbicidal activity, downybrome; conditions: Postemergence
How it was run: as §1

foxtail (Setaria spp.) [10] = assay: Postemergence herbicidal activity, foxtail; conditions: Postemergence
How it was run: as §1

wild oats (Avena fatua) [11] = assay: Postemergence herbicidal activity, wild oats; conditions: Postemergence
How it was run: as §1

[12] = system: crabgrass (Digitaria spp.); assay: Preemergence herbicidal activity, crabgrass
Procedure: (§3) Using the procedure described below, compounds of the invention are evaluated for control of several of the following plant species:
(§4) The following est procedure is employed. Seeds of selected crops and weeds are planted in soil in flats. For preemergence tests, the flats are treated with the test compound immediately after the planting. For postemergence tests, the seeds are allowed to germinate, and after two weeks the flats are treated with the test compound. The compound to be evaluated is dissolved in acetone, diluted with water, and sprayed over the flats using a carrier volume equivalent to 50 gallons per acre at the rate of application (pounds per acre, lb/A.) specified in the tables. About two weeks after the application of the test compound, the state of growth of the plants is observed and the phytotoxic effect of the compound is evaluated. Tables III and IV give the average percent control achieved by test compounds in terms of the percent of the plants which are killed by the compounds.

corn (Zea mays) = assay: Preemergence herbicidal activity, corn
Procedure: as §3, §4

rice (Oryza sativa) [13] = assay: Preemergence herbicidal activity, rice
Procedure: as §3, §4

soybean (Glycine max) [14] = assay: Preemergence herbicidal activity, soybean
Procedure: as §3, §4

wheat (Triticum sativum) [15] = assay: Preemergence herbicidal activity, wheat
Procedure: as §3, §4

rice (Oryza sativa) [16] = assay: Postemergence herbicidal activity, rice
Procedure: as §3, §4

soybean (Glycine max) [17] = assay: Postemergence herbicidal activity, soybean
Procedure: as §3, §4

wheat (Triticum sativum) [18] = assay: Postemergence herbicidal activity, wheat
Procedure: as §3, §4

For `CCOC(=O)C(C)Oc1ccc(Oc2ccc(C(F)(F)F)cc2Cl)cc1` (stereo not drawn) [Example 1, Ethyl 2-[4-(2-chloro-4-trifluoromethylphenoxy)phenoxy] propionate], the “% control, Tomato” value ([1]; 1/2 lb/A (Table III)) was 0%, the “% control, Tomato” value ([1]; 1 lb/A (Table III)) was 0% and the “% control, Tomato” value ([1]; 2 lb/A (Table III)) was 0%. The “% control, Velvetleaf” value ([2]; 1/2 lb/A (Table III)) was 0%, the “% control, Velvetleaf” value ([2]; 1 lb/A (Table III)) was 0% and the “% control, Velvetleaf” value ([2]; 2 lb/A (Table III)) was 0%. The “% control, Barnyardgrass” value ([3]; 1/2 lb/A (Table III)) was 99%, the “% control, Barnyardgrass” value ([3]; 1 lb/A (Table III)) was 100% and the “% control, Barnyardgrass” value ([3]; 2 lb/A (Table III)) was 100%. The “% control, Downybrome” value ([4]; 1/2 lb/A (Table III)) was 0%, the “% control, Downybrome” value ([4]; 1 lb/A (Table III)) was 80% and the “% control, Downybrome” value ([4]; 2 lb/A (Table III)) was 90%. For the same molecule, the “% control, Foxtail” value (foxtail (Setaria spp.) [5]; 1/2 lb/A (Table III)) was 100%, the “% control, Foxtail” value (foxtail (Setaria spp.) [5]; 1 lb/A (Table III)) was 100% and the “% control, Foxtail” value (foxtail (Setaria spp.) [5]; 2 lb/A (Table III)) was 100%. For the same molecule, the “% Control, Wild Oats” value (wild oats (Avena fatua) [6]; 1/2 lb/A (Table III)) was 0%, the “% Control, Wild Oats” value (wild oats (Avena fatua) [6]; 1 lb/A (Table III)) was 60% and the “% Control, Wild Oats” value (wild oats (Avena fatua) [6]; 2 lb/A (Table III)) was 99%. For the same molecule, the “% control, Tomato” value ([7]; 1/2 lb/A (Table III)) was 10%, the “% control, Tomato” value ([7]; 1 lb/A (Table III)) was 30% and the “% control, Tomato” value ([7]; 2 lb/A (Table III)) was 80%. The “% control, Barnyardgrass” value ([8]; 1/2 lb/A (Table III)) was 100%, the “% control, Barnyardgrass” value ([8]; 1 lb/A (Table III)) was 100% and the “% control, Barnyardgrass” value ([8]; 2 lb/A (Table III)) was 100%. The “% control, Downybrome” value ([9]; 1/2 lb/A (Table III)) was 70%, the “% control, Downybrome” value ([9]; 1 lb/A (Table III)) was 80% and the “% control, Downybrome” value ([9]; 2 lb/A (Table III)) was 90%. For the same molecule, the “% control, Foxtail” value (foxtail (Setaria spp.) [10]; 1/2 lb/A (Table III)) was 100%, the “% control, Foxtail” value (foxtail (Setaria spp.) [10]; 1 lb/A (Table III)) was 100% and the “% control, Foxtail” value (foxtail (Setaria spp.) [10]; 2 lb/A (Table III)) was 100%. The “% Control, Wild Oats” value (wild oats (Avena fatua) [11]; 1/2 lb/A (Table III)) was 100%, the “% Control, Wild Oats” value (wild oats (Avena fatua) [11]; 1 lb/A (Table III)) was 100% and the “% Control, Wild Oats” value (wild oats (Avena fatua) [11]; 2 lb/A (Table III)) was 100%. For the same molecule, the “% Control, Crabgrass” value ([12]; 1/2 lb/A (Table III)) was 100%, the “% Control, Crabgrass” value ([12]; 1 lb/A (Table III)) was 100% and the “% Control, Crabgrass” value ([12]; 2 lb/A (Table III)) was 100%. The “% Control, Corn” value (corn (Zea mays); 1/2 lb/A (Table III)) was 0%, the “% Control, Corn” value (corn (Zea mays); 1 lb/A (Table III)) was 60% and the “% Control, Corn” value (corn (Zea mays); 2 lb/A (Table III)) was 99%. The “% Control, Rice” value (rice (Oryza sativa) [13]; 1/2 lb/A (Table III)) was 0%, the “% Control, Rice” value (rice (Oryza sativa) [13]; 1 lb/A (Table III)) was 80% and the “% Control, Rice” value (rice (Oryza sativa) [13]; 2 lb/A (Table III)) was 100%. For the same molecule, the “% Control, Soybean” value (soybean (Glycine max) [14]; 1/2 lb/A (Table III)) was 0%, the “% Control, Soybean” value (soybean (Glycine max) [14]; 1 lb/A (Table III)) was 0% and the “% Control, Soybean” value (soybean (Glycine max) [14]; 2 lb/A (Table III)) was 0%. For the same molecule, the “% Control, Wheat” value (wheat (Triticum sativum) [15]; 1/2 lb/A (Table III)) was 0%, the “% Control, Wheat” value (wheat (Triticum sativum) [15]; 1 lb/A (Table III)) was 0% and the “% Control, Wheat” value (wheat (Triticum sativum) [15]; 2 lb/A (Table III)) was 0%. The “% Control, Rice” value (rice (Oryza sativa) [16]; 1/2 lb/A (Table III)) was 70%, the “% Control, Rice” value (rice (Oryza sativa) [16]; 1 lb/A (Table III)) was 99% and the “% Control, Rice” value (rice (Oryza sativa) [16]; 2 lb/A (Table III)) was 90%. The “% Control, Soybean” value (soybean (Glycine max) [17]; 1/2 lb/A (Table III)) was 20%, the “% Control, Soybean” value (soybean (Glycine max) [17]; 1 lb/A (Table III)) was 30% and the “% Control, Soybean” value (soybean (Glycine max) [17]; 2 lb/A (Table III)) was 40%. For the same molecule, the “% Control, Wheat” value (wheat (Triticum sativum) [18]; 1/2 lb/A (Table III)) was 80%, the “% Control, Wheat” value (wheat (Triticum sativum) [18]; 1 lb/A (Table III)) was 90% and the “% Control, Wheat” value (wheat (Triticum sativum) [18]; 2 lb/A (Table III)) was 95%.
